Experimental data reported in the NIST ThermoML archive (doi:10.1021/acs.jced.6b00391).
“And” between values parts separate entries of the source, which are not always exact repeats. Equal values may be shown once.

Assays:
[1] = Liquid, Capillary tube (Ostwald / Ubbelohde) method
[2] = xn = mol fraction of the nth substance listed; conditions: Liquid, Capillary tube (Ostwald / Ubbelohde) method

CCCCCCCCCCCC [dodecane]
[1], 5000 kPa
Conditions | viscosity
303.2 K | 1.334 mPa·s and 1.314 mPa·s
313.2 K | 1.122 mPa·s and 1.116 mPa·s
323 K | 0.97 mPa·s and 0.9626 mPa·s
333.1 K | 0.8519 mPa·s and 0.8434 mPa·s
343.3 K | 0.7442 mPa·s and 0.7445 mPa·s
353.3 K | 0.6736 mPa·s and 0.6661 mPa·s
363.2 K | 0.6075 mPa·s and 0.5969 mPa·s
373.3 K | 0.5467 mPa·s and 0.5397 mPa·s
383.2 K | 0.4902 mPa·s and 0.4913 mPa·s
393.2 K | 0.4472 mPa·s and 0.448 mPa·s
403.2 K | 0.4112 mPa·s and 0.4118 mPa·s
413.2 K | 0.3785 mPa·s and 0.3799 mPa·s
423.2 K | 0.3508 mPa·s and 0.3516 mPa·s
433.2 K | 0.3277 mPa·s and 0.3259 mPa·s
443.4 K | 0.2974 mPa·s and 0.3041 mPa·s
453.1 K | 0.2822 mPa·s and 0.2827 mPa·s
463.2 K | 0.2604 mPa·s and 0.2619 mPa·s
473.2 K | 0.244 mPa·s and 0.244 mPa·s
483.1 K | 0.225 mPa·s and 0.2259 mPa·s
493.2 K | 0.2076 mPa·s and 0.2072 mPa·s
503.2 K | 0.1964 mPa·s and 0.1969 mPa·s
513.1 K | 0.1846 mPa·s and 0.1835 mPa·s
523.2 K | 0.1722 mPa·s and 0.1698 mPa·s
533.1 K | 0.1608 mPa·s and 0.1591 mPa·s
543.2 K | 0.1489 mPa·s and 0.1487 mPa·s
553.2 K | 0.1375 mPa·s and 0.1391 mPa·s
563.2 K | 0.1297 mPa·s and 0.1305 mPa·s
573.2 K | 0.1201 mPa·s and 0.1221 mPa·s
583.3 K | 0.1126 mPa·s and 0.1141 mPa·s
593.2 K | 0.1031 mPa·s and 0.1064 mPa·s
603.2 K | 0.0974 mPa·s and 0.0987 mPa·s
613.2 K | 0.0913 mPa·s and 0.0915 mPa·s
623.1 K | 0.0839 mPa·s and 0.0849 mPa·s
633.2 K | 0.0767 mPa·s and 0.0786 mPa·s
643.1 K | 0.0694 mPa·s and 0.0714 mPa·s
653.2 K | 0.0657 mPa·s and 0.065 mPa·s
663.2 K | 0.0605 mPa·s and 0.0605 mPa·s
673.2 K | 0.0551 mPa·s and 0.0548 mPa·s

CCCCCCCC [octane]
[1], 3100 kPa
Conditions | viscosity
303.2 K | 0.4913 mPa·s and 0.4948 mPa·s
313.3 K | 0.4426 mPa·s and 0.4431 mPa·s
323.2 K | 0.3961 mPa·s and 0.3979 mPa·s
333.2 K | 0.3634 mPa·s and 0.3617 mPa·s
343.2 K | 0.3311 mPa·s and 0.3308 mPa·s
353.1 K | 0.3013 mPa·s and 0.3032 mPa·s
363.2 K | 0.2765 mPa·s and 0.2775 mPa·s
373.3 K | 0.254 mPa·s and 0.258 mPa·s
383 K | 0.234 mPa·s and 0.2379 mPa·s
393.1 K | 0.2205 mPa·s and 0.2202 mPa·s
403.2 K | 0.2019 mPa·s and 0.204 mPa·s
413.2 K | 0.1905 mPa·s and 0.1902 mPa·s
423.2 K | 0.1761 mPa·s and 0.1775 mPa·s
433.1 K | 0.1643 mPa·s and 0.1642 mPa·s
443.2 K | 0.1526 mPa·s and 0.1514 mPa·s
453.1 K | 0.1417 mPa·s and 0.1428 mPa·s
463.2 K | 0.1321 mPa·s and 0.1318 mPa·s
473.1 K | 0.1228 mPa·s and 0.1241 mPa·s
483.1 K | 0.1138 mPa·s and 0.1152 mPa·s
493.1 K | 0.1068 mPa·s and 0.1072 mPa·s
503 K | 0.0993 mPa·s and 0.0983 mPa·s
513.2 K | 0.0901 mPa·s and 0.0904 mPa·s
523.3 K | 0.0825 mPa·s and 0.0826 mPa·s
533.4 K | 0.0753 mPa·s and 0.0751 mPa·s
543.4 K | 0.0678 mPa·s and 0.0678 mPa·s
553.4 K | 0.0607 mPa·s and 0.0609 mPa·s
563.3 K | 0.0532 mPa·s and 0.0534 mPa·s
573.3 K | 0.0444 mPa·s and 0.0446 mPa·s
583.1 K | 0.0325 mPa·s and 0.0323 mPa·s

CCCCCCCC [octane] + CCCCCCC
viscosity, [2]
Conditions | 100 kPa | 5000 kPa
303.5 K, x2 = 0.255 | 0.4422 mPa·s and 0.4417 mPa·s | –
303.5 K, x2 = 0.51 | 0.4149 mPa·s and 0.413 mPa·s | 0.4362 mPa·s and 0.4357 mPa·s
303.9 K, x2 = 0.255 | – | 0.4663 mPa·s and 0.4658 mPa·s
305.7 K, x2 = 0.759 | 0.3798 mPa·s and 0.3784 mPa·s | 0.4032 mPa·s and 0.4029 mPa·s
333.5 K, x2 = 0.51 | 0.3011 mPa·s and 0.3026 mPa·s | –
333.8 K, x2 = 0.255 | 0.3234 mPa·s and 0.3228 mPa·s | –
335.6 K, x2 = 0.759 | 0.2815 mPa·s and 0.2806 mPa·s | –
363.4 K, x2 = 0.255 | 0.2447 mPa·s and 0.2464 mPa·s | –
363.4 K, x2 = 0.51 | 0.2329 mPa·s and 0.2323 mPa·s | –
364.6 K, x2 = 0.759 | 0.2164 mPa·s and 0.2169 mPa·s | –
373.2 K, x2 = 0.255 | – | 0.2415 mPa·s and 0.2402 mPa·s
373.2 K, x2 = 0.759 | – | 0.2181 mPa·s and 0.2175 mPa·s
373.6 K, x2 = 0.51 | – | 0.2277 mPa·s and 0.2275 mPa·s
413.7 K, x2 = 0.51 | – | 0.1702 mPa·s and 0.1698 mPa·s
413.9 K, x2 = 0.255 | – | 0.1792 mPa·s and 0.1801 mPa·s
424.4 K, x2 = 0.759 | – | 0.1497 mPa·s and 0.1493 mPa·s
472.5 K, x2 = 0.759 | – | 0.1071 mPa·s and 0.1075 mPa·s
473.4 K, x2 = 0.51 | – | 0.1124 mPa·s and 0.1125 mPa·s
473.5 K, x2 = 0.255 | – | 0.1186 mPa·s and 0.1184 mPa·s
